Reference: patent US6555091B1, “Polypeptide capable of reacting with antibodies of patients suffering from multiple sclerosis and uses” (Bio Merieux, priority 1997, dated 2003)
No end group written: not given here.

Tested on: IgG of sera from MS patients and healthy individuals
Assay: ELISA of biotinylated synthetic peptides, IgG response of individual human sera
Assay type: binding
Details: for MEAN / OD 1 / OD 2 / OD 3 / BASELINE (mark: above cut-off): 1/100
Protocol: Depending on the information obtained from the preceding examples, the hexapeptides SEQ ID NO: 3 and SEQ ID NO: 4 were synthesized and biotinylated according to the method described in Patent Application No. EP 93420183 with the following modifications: the peptide still bound to the resin is selectively deprotected at the N-terminal position. After overnight incubation with the biotin-NHS at 50% in DMF, the peptide is then cleaved from the resin and treated as described in the patent cited above.
The wells of a Maxisorb (trade name, Nunc) microtiter plate are saturated with 100 μl of a 50 mM NaHCO3 solution, pH 9.6, containing 10 μg/ml of streptavidin for 2 hours at 37° C. The plate is washed with TBS/0.05% Tween 20 buffer. The wells are then saturated with 250 μl of wash buffer supplemented with 10% goat serum for 1 hour at 37° C. and then washed as described above.
The sera to be analyzed are diluted 1/100 in saturation buffer, supplemented with 0.05% Tween 20 and incubated for 2 hours at 37° C. After washing, a solution of peroxidase-labeled anti-human immunoglobulin G goat antibody conjugate (marketed by Jackson Immuno Research Laboratories Inc.) is added at the dilution of 1/10,000 and the plates are incubated for 1 hour at 37° C. After washes, the ortho-phenylenediamine (OPD) substrate is added and the reaction is stopped after 10 minutes by adding 50 μl of H2SO4. The optical density is read at 492 nm.
In a test carried out with 1/100 dilutions of 11 English sera from MS patients at the remission stage and 4 negative English sera, the peptides SEQ ID NOs: 3 and 4 are recognized by 4 sera out of 11 which give a positive IgG signal compared with the negative serum which gave the highest signal.

[1] = IgG, serum 33/6 (MS+, remission)
[2] = IgG, serum 33/8 (MS+, remission)
[3] = IgG, serum 33/18 (MS+, remission)
[4] = IgG, serum No. 12 (MS−, healthy)
[5] = IgG, serum No. 13 (MS−, healthy)
[6] = IgG, serum No. 14 (MS−, healthy)
[7] = IgG, serum No. 15 (MS−, healthy)
[8] = IgG, serum QS 2 (MS+, remission)
[9] = IgG, serum QS 3 (MS+, remission)
[10] = IgG, serum QS 4 (MS+, remission)
[11] = IgG, serum QS 6 (MS+, remission)
[12] = IgG, serum QS 7 (MS+, remission)
[13] = IgG, serum QS 8 (MS+, remission)
[14] = IgG, serum QS 11 (MS+, remission)
[15] = IgG, serum QS 12 (MS+, remission)

LQQAVF [SEQ ID NO: 3]
MS sera giving a positive IgG signal compared with the negative serum which gave the highest signal (1/100 dilutions of 11 sera from MS patients at the remission stage, 4 negative sera): 4 sera out of 11 | MS sera recognizing the peptide significantly, cut-off mean of negative sera plus 3 times the standard deviation (IgG, 1/100 dilutions of 11 MS remission sera, 4 negative sera): 3 sera out of 11 | BASELINE (IgG, cut-off, mean of negative sera plus 3 times the standard deviation): 815 optical density (×1000) | MEAN [1]: 587 optical density (×1000) | OD 1 [1]: 535 optical density (×1000) | OD 2 [1]: 599 optical density (×1000) | OD 3 [1]: 626 optical density (×1000) | BASELINE (mark: above cut-off) [2]: X (the mean of the values obtained with the negative sera is calculated and 3 times the standard deviation is added in order to determine a cut-off) | MEAN [2]: 1067 optical density (×1000) | OD 1 [2]: 990 optical density (×1000) | OD 2 [2]: 941 optical density (×1000) | OD 3 [2]: 1271 optical density (×1000) | MEAN [3]: 395 optical density (×1000) | OD 1 [3]: 601 optical density (×1000) | OD 2 [3]: 339 optical density (×1000) | OD 3 [3]: 246 optical density (×1000) | MEAN [4]: 639 optical density (×1000) | OD 1 [4]: 550 optical density (×1000) | OD 2 [4]: 640 optical density (×1000) | OD 3 [4]: 726 optical density (×1000) | MEAN [5]: 377 optical density (×1000) | OD 1 [5]: 366 optical density (×1000) | OD 2 [5]: 369 optical density (×1000) | OD 3 [5]: 407 optical density (×1000) | MEAN [6]: 307 optical density (×1000) | OD 1 [6]: 367 optical density (×1000) | OD 2 [6]: 285 optical density (×1000) | OD 3 [6]: 270 optical density (×1000) | MEAN [7]: 452 optical density (×1000) | OD 1 [7]: 439 optical density (×1000) | OD 2 [7]: 496 optical density (×1000) | OD 3 [7]: 422 optical density (×1000) | MEAN [8]: 309 optical density (×1000) | OD 1 [8]: 294 optical density (×1000) | OD 2 [8]: 339 optical density (×1000) | OD 3 [8]: 293 optical density (×1000) | MEAN [9]: 727 optical density (×1000) | OD 1 [9]: 618 optical density (×1000) | OD 2 [9]: 784 optical density (×1000) | OD 3 [9]: 779 optical density (×1000) | BASELINE (mark: above cut-off) [10]: X (the mean of the values obtained with the negative sera is calculated and 3 times the standard deviation is added in order to determine a cut-off) | MEAN [10]: 1346 optical density (×1000) | OD 1 [10]: 1161 optical density (×1000) | OD 2 [10]: 1293 optical density (×1000) | OD 3 [10]: 1583 optical density (×1000) | MEAN [11]: 325 optical density (×1000) | OD 1 [11]: 306 optical density (×1000) | OD 2 [11]: 263 optical density (×1000) | OD 3 [11]: 407 optical density (×1000) | BASELINE (mark: above cut-off) [12]: X (the mean of the values obtained with the negative sera is calculated and 3 times the standard deviation is added in order to determine a cut-off) | MEAN [12]: 1355 optical density (×1000) | OD 1 [12]: 1307 optical density (×1000) | OD 2 [12]: 1298 optical density (×1000) | OD 3 [12]: 1461 optical density (×1000) | MEAN [13]: 615 optical density (×1000) | OD 1 [13]: 664 optical density (×1000) | OD 2 [13]: 635 optical density (×1000) | OD 3 [13]: 545 optical density (×1000) | MEAN [14]: 235 optical density (×1000) | OD 1 [14]: 429 optical density (×1000) | OD 2 [14]: 169 optical density (×1000) | OD 3 [14]: 108 optical density (×1000) | MEAN [15]: 398 optical density (×1000) | OD 1 [15]: 405 optical density (×1000) | OD 2 [15]: 472 optical density (×1000) | OD 3 [15]: 316 optical density (×1000)
